# Experimental data taken from the supplement of paper PMC10307832.
# Legend:
# Assay in all cases: relative viability (nuclei count vs DMSO), 5 days (fraction); higher = more cells survive
# Shikonin + Bortezomib = compound: CC(C)=CC[C@@H](O)C1=CC(=O)c2c(O)ccc(O)c2C1=O [Shikonin] + CC(C)C[C@H](NC(=O)[C@H](Cc1ccccc1)NC(=O)c1cnccn1)B(O)O [Bortezomib] (partner 0.002 µM)
# Procedure, shortened: (§1)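 Relative viability is defined as nuclei in treated wells over nuclei in vehicle wells. Duplicate plates were run and medians reported. Lung cancer cell lines in 1536-well plates were dosed by pin tool one day after seeding, with one drug or with a fixed anchor-drug dose plus five library-drug doses (not always all listed) in √10 steps, and nuclei were counted after 5 days.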
# [1] = compound: CC(C)N(CCCNC(=O)Nc1ccc(C(C)(C)C)cc1)C[C@H]1O[C@@H](n2ccc3c(N)ncnc32)[C@H](O)[C@@H]1O + CCNC(=O)c1noc(-c2cc(C(C)C)c(O)cc2O)c1-c1ccc(CN2CCOCC2)cc1 [Luminespib] (partner 0.01 µM)
# Procedure, shortened: as §1
# [2] = compound: CC(C)N(CCCNC(=O)Nc1ccc(C(C)(C)C)cc1)C[C@H]1O[C@@H](n2ccc3c(N)ncnc32)[C@H](O)[C@@H]1O + Cc1nc(Nc2ncc(C(=O)Nc3c(C)cccc3Cl)s2)cc(N2CCN(CCO)CC2)n1 [Dasatinib] (partner 0.075 µM)
# Procedure, shortened: as §1
# Shikonin + Decitabine = compound: CC(C)=CC[C@@H](O)C1=CC(=O)c2c(O)ccc(O)c2C1=O [Shikonin] + Nc1ncn([C@H]2C[C@H](O)[C@@H](CO)O2)c(=O)n1 [Decitabine] (partner 2 µM)
# Procedure, shortened: as §1
Cell Line,relative viability (Shikonin + Bortezomib; first compound 0.01 µM),relative viability (Shikonin + Bortezomib; first compound 0.1 µM),relative viability (Shikonin + Bortezomib; first compound 0.3162 µM),relative viability (Shikonin + Bortezomib; first compound 1 µM),relative viability ([1]; first compound 0.08 µM),relative viability ([1]; first compound 0.253 µM),relative viability ([1]; first compound 0.8 µM),relative viability ([1]; first compound 2.53 µM),relative viability ([1]; first compound 8 µM),relative viability ([2]; first compound 0.08 µM),relative viability ([2]; first compound 0.253 µM),relative viability ([2]; first compound 0.8 µM),relative viability ([2]; first compound 2.53 µM),relative viability ([2]; first compound 8 µM),relative viability (Shikonin + Decitabine; first compound 0.01 µM),relative viability (Shikonin + Decitabine; first compound 0.3162 µM),relative viability (Shikonin + Decitabine; first compound 1 µM),relative viability (Shikonin + Decitabine; first compound 0.1 µM)
NCI-H1563,0.824,0.909,0.757,0.607,0.474,0.542,0.592,0.533,0.515,0.447,0.42,0.488,0.434,0.424,,,,
NCI-H1623,,,,,0.495,0.472,0.394,0.589,0.547,0.562,0.563,0.571,0.537,0.521,,,,
NCI-H1648,,,,,,,,,,,,,,,0.481,0.526,0.532,
NCI-H1703,0.302,0.361,0.23,0.114,,,,,,,,,,,,,,
NCI-H1793,,,,,0.18,,0.292,0.171,0.203,0.368,,0.355,0.36,0.38,0.513,0.451,0.456,0.565
NCI-H1944,,,,,0.716,0.683,0.819,0.709,0.766,0.197,0.197,0.257,0.243,0.222,0.464,0.443,0.435,0.446
NCI-H2170,,,,,0.793,0.762,0.718,0.661,0.629,0.429,0.478,0.55,0.591,0.562,0.481,0.496,0.503,0.449
NCI-H2228,0.928,0.877,1.25,0.981,0.218,0.191,0.178,0.144,0.18,0.54,0.457,0.502,0.416,0.613,,,,
NCI-H2342,,,,,0.856,0.576,0.722,0.675,0.724,0.336,0.29,0.289,0.321,0.277,0.723,0.74,0.748,0.72
SK-MES-1,,,,,0.693,0.723,0.929,0.872,0.717,0.348,0.355,0.356,0.475,0.316,0.323,0.371,0.426,0.417
SW 900,,,,,0.166,0.165,,0.185,0.19,0.74,0.542,,0.605,0.54,0.373,0.395,0.396,0.536
